Reference: ChEMBL document CHEMBL5252597, “Synthesis and biological evaluation of N-(3-fluorobenzyl)-4-(1-(methyl-d3)-1H-indazol-5-yl)-5-(6-methylpyridin-2-yl)-1H-imidazol-2-amine as a novel, potent ALK5 receptor inhibitor” (Bioorg Med Chem Lett, 2023)

Assays:
[1] = molecular target: Cytochrome P450 2D6 (Homo sapiens, UniProt P10635); assay: Inhibition of CYP2D6 (unknown origin); type: ADME
[2] = molecular target: T1, Cytochrome P450 1A2 (Homo sapiens, UniProt P05177); assay: Inhibition of CYP1A2 (unknown origin); type: ADME
T1 sequence (P05177 whole entry): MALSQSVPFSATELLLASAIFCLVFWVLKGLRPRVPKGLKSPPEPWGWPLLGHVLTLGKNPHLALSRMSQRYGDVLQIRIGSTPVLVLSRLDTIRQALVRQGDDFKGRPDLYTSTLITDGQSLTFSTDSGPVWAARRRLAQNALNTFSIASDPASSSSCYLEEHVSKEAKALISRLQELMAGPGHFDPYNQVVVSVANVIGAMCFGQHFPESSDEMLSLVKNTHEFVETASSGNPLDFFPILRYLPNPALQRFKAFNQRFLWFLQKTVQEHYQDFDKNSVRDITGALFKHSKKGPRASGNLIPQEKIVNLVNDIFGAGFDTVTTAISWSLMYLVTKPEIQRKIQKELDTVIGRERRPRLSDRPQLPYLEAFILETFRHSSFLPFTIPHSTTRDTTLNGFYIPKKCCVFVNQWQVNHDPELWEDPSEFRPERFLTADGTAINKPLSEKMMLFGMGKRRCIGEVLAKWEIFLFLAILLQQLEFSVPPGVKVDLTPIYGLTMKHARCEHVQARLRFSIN

[3] = molecular target: Cytochrome P450 3A4 (Homo sapiens, UniProt P08684); assay: Inhibition of CYP3A4 (unknown origin); type: ADME
[4] = molecular target: Cytochrome P450 2C9 (Homo sapiens, UniProt P11712); assay: Inhibition of CYP2C9 (unknown origin); type: ADME
[5] = molecular target: Cytochrome P450 2C19 (Homo sapiens, UniProt P33261); assay: Inhibition of CYP2C19 (unknown origin); type: ADME
[6] = molecular target: T2, Activin receptor type-1 (Homo sapiens, UniProt Q04771); assay: Inhibition of human ALK2 by […] assay
T2 sequence (Q04771 whole entry): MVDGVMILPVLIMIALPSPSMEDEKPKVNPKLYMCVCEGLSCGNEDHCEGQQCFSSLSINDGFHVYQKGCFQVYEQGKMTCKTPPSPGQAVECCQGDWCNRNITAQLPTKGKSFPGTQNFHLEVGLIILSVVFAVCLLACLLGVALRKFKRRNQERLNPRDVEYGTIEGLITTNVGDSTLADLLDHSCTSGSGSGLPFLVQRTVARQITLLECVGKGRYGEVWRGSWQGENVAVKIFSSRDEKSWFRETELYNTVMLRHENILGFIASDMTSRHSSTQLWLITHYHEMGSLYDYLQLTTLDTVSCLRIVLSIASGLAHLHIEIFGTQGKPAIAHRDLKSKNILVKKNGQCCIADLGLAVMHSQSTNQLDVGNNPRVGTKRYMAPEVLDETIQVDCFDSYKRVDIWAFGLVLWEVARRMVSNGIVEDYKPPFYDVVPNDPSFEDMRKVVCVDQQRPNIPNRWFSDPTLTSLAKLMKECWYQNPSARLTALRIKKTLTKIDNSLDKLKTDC

[7] = Half life in BALB/c mouse at 2 mg/kg, iv; type: ADME, organism-based; details: in vivo
[8] = Total AUC in BALB/c mouse at 2 mg/kg, iv; type: ADME, organism-based; set-up: dose 2 mg/kg, route iv; details: in vivo
[9] = Half life in BALB/c mouse at 10 mg/kg, po; type: ADME, organism-based; details: in vivo
[10] = Inhibition of mouse CYP2D6; type: ADME
[11] = Total AUC in BALB/c mouse at 10 mg/kg, po; type: ADME, organism-based; set-up: dose 10 mg/kg, route po; details: in vivo
[12] = Volume of distribution in BALB/c mouse at 2 mg/kg, iv; type: ADME, organism-based; details: in vivo
[13] = Clearance in BALB/c mouse at 2 mg/kg, iv; type: ADME, organism-based; details: in vivo
[14] = Stability of the compound in human plasma assessed as half life; type: ADME, cell-free
[15] = Cmax in BALB/c mouse at 10 mg/kg, po; type: ADME, organism-based; set-up: dose 10 mg/kg, route po; details: in vivo
[16] = Oral bioavailability in BALB/c mouse at 10 mg/kg; type: ADME, organism-based; details: in vivo
[17] = molecular target: T3, Cytochrome P450 1A2 (Mus musculus, UniProt P00186); assay: Inhibition of mouse CYP1A2; type: ADME
T3 sequence (P00186 whole entry): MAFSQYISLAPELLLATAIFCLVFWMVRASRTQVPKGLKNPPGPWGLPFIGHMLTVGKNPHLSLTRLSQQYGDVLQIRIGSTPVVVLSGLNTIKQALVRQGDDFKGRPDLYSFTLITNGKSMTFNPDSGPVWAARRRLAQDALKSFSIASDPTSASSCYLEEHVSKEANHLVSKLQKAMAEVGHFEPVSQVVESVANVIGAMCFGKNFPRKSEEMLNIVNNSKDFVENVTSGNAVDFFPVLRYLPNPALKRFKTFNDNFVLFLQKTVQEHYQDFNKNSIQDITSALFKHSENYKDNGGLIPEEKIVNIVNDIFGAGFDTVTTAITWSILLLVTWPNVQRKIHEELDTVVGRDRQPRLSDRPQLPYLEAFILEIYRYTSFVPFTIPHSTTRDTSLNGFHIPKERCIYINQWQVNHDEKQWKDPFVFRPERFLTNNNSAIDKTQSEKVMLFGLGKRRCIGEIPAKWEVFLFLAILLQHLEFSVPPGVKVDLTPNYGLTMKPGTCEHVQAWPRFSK

[18] = Stability of the compound in mouse plasma assessed as half life; type: ADME, cell-free
[19] = Tmax in BALB/c mouse at 10 mg/kg, po; type: ADME, organism-based; details: in vivo
[20] = Inhibition of mouse CYP3A4; type: ADME
[21] = Inhibition of mouse CYP2C8; type: ADME
[22] = Inhibition of mouse CYP2C9; type: ADME
[23] = Metabolic stability in human liver microsomes assessed as intrinsic clearance; type: ADME, Microsome; details: read-out: CLH
[24] = molecular target: T4, TGF-beta receptor type-1 (Homo sapiens, UniProt P36897); assay: Inhibition of ALK5 in human Hs-578T cells assessed as effect of TGF-beta-induced […] phosphorylation; type: cell-based
T4 sequence (P36897 whole entry): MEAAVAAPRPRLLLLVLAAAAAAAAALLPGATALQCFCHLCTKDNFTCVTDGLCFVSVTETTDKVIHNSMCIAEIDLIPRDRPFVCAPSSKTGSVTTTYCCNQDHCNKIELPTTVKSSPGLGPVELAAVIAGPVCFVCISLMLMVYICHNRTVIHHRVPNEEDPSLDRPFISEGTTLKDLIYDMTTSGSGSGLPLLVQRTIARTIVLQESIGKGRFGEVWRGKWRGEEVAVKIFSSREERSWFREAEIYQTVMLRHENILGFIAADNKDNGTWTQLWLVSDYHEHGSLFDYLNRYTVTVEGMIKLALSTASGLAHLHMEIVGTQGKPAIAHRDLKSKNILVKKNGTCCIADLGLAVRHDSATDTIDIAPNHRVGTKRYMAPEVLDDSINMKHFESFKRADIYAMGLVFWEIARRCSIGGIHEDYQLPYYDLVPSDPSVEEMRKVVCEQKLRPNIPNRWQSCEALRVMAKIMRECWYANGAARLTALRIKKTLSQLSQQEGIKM

[25] = molecular target: T4, TGF-beta receptor type-1; assay: Inhibition of human ALK5 by Kinase Glo luminescence assay

Sequence of Cytochrome P450 2D6 (P10635 whole entry): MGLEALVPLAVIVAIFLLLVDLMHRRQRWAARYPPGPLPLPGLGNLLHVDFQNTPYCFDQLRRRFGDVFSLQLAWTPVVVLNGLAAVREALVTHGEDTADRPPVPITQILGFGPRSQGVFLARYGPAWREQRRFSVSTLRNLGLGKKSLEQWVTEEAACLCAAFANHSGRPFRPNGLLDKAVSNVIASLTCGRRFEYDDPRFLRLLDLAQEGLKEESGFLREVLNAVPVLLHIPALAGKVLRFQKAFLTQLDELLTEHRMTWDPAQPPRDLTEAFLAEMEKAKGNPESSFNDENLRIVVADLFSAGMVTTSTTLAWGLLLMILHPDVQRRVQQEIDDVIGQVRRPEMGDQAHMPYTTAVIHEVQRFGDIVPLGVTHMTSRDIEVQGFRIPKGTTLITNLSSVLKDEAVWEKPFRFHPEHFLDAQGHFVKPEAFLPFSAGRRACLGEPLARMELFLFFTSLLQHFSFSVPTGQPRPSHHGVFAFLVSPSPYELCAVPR
Sequence of Cytochrome P450 2C9 (P11712 whole entry): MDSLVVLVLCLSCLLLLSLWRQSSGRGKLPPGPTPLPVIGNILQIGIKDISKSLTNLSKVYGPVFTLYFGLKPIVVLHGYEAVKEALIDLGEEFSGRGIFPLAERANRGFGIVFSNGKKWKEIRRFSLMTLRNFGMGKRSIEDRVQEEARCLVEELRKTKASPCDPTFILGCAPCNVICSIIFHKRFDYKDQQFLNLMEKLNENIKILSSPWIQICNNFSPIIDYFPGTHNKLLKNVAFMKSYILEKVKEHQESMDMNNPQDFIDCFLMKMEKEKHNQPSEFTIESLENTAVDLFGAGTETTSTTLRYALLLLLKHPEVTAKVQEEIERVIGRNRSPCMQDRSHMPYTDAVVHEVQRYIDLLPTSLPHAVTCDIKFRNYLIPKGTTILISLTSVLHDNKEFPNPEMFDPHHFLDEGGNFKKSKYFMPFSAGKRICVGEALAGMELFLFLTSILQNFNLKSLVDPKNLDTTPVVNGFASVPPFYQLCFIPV
Sequence of Cytochrome P450 2C19 (P33261 whole entry): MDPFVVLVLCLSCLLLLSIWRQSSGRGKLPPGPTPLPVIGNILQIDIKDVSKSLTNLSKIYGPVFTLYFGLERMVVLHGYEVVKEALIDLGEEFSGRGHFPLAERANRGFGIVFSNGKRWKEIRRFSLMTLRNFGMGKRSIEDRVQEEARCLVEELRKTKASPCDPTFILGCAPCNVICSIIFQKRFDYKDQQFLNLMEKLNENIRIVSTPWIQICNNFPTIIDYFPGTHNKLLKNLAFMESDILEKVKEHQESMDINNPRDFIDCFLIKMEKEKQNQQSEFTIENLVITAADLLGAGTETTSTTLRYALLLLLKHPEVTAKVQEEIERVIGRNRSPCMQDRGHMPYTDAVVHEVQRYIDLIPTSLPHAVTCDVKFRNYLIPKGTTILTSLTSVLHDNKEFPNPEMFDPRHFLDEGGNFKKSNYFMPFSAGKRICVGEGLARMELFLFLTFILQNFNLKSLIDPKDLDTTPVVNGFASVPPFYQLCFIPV
Sequence of Cytochrome P450 3A4 (P08684 whole entry): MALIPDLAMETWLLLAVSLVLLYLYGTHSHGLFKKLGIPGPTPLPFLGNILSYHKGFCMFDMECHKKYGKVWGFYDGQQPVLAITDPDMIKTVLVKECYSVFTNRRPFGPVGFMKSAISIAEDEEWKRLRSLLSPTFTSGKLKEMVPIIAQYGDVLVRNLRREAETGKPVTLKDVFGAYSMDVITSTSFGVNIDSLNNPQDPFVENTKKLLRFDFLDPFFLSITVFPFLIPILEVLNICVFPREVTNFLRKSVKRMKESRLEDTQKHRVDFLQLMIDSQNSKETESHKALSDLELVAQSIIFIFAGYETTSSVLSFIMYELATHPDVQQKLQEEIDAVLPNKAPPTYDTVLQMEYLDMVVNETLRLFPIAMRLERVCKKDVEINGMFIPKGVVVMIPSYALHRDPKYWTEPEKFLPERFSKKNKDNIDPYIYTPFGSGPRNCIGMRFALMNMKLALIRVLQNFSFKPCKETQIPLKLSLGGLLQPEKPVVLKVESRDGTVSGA

Row | IC50 [1] | IC50 [2] | IC50 [3] | IC50 [4] | IC50 [5] | IC50 [6] | SMILES | further results
1 | 5.8 µM | 8.7 µM | > 10 µM | 0.5 µM | 3.3 µM | – | Cc1cccc(-c2[nH]c(NCc3ccc(F)cc3F)nc2-c2ccc3[nH]ncc3c2)n1 | –
2 | > 10 µM | > 10 µM | > 10 µM | > 10 µM | > 10 µM | – | Cc1cccc(-c2[nH]c(NCc3ccc(Cl)c(Cl)c3)nc2-c2ccc3[nH]ncc3c2)n1 | –
3 | 6.7 µM | > 10 µM | > 10 µM | 1.1 µM | 8.6 µM | > 10 µM | Cc1cccc(-c2[nH]c(NCc3cccc(F)c3)nc2-c2ccc3[nH]ncc3c2)n1 | –
4 | 6.9 µM | > 10 µM | > 10 µM | 0.6 µM | 4.3 µM | – | Cc1cccc(-c2[nH]c(NCc3cccc(F)c3F)nc2-c2ccc3[nH]ncc3c2)n1 | –
5 | 4.1 µM | 8.6 µM | > 10 µM | 0.4 µM | 4.3 µM | – | Cc1cccc(-c2[nH]c(NCc3ccc(F)c(F)c3)nc2-c2ccc3[nH]ncc3c2)n1 | –
6 | 8.8 µM | > 10 µM | > 10 µM | 1.4 µM | 7.2 µM | – | Cc1cccc(-c2[nH]c(NCc3ccccc3F)nc2-c2ccc3[nH]ncc3c2)n1 | –
7 | 6.7 µM | 8.8 µM | 8.7 µM | 0.4 µM | 3.1 µM | – | Cc1cccc(-c2[nH]c(NCc3ccc(Cl)cc3F)nc2-c2ccc3[nH]ncc3c2)n1 | –
8 | – | – | – | – | – | > 10 µM | CCn1ncc2cc(-c3nc(NCc4cccc(F)c4)[nH]c3-c3cccc(C)n3)ccc21 | –
9 | 4.8 µM | > 10 µM | 8 µM | 0.5 µM | 3.6 µM | – | Cc1cccc(-c2[nH]c(NCc3cccc(Cl)c3F)nc2-c2ccc3[nH]ncc3c2)n1 | –
10 | – | – | – | – | – | – | [2H]C([2H])([2H])n1ncc2cc(-c3nc(NCc4cccc(F)c4)[nH]c3-c3cccc(C)n3)ccc21 | half-life [7]: 1.5 h; AUC [8]: 1170 ng·h/mL; half-life [9]: 1.6 h; IC50 [10]: 20.5 µM; AUC [11]: 3940 ng·h/mL; Vd [12]: 3.8 L/kg; clearance [13]: 29 mL/min/kg; half-life [14]: > 2 h; Cmax [15]: 1720 ng/mL; bioavailability [16]: 67.6%; IC50 [17]: 67 µM; half-life [18]: > 2 h; Tmax [19]: 0.4 h; IC50 [20]: 16 µM; IC50 [21]: 38.7 µM; IC50 [22]: 22.1 µM; microsomal CLint [23]: 23.1 µL/min/mg
11 | > 10 µM | > 10 µM | > 10 µM | > 10 µM | > 10 µM | > 10 µM | Cc1cccc(-c2[nH]c(NCc3cccc(F)c3)nc2-c2ccc3c(cnn3C)c2)n1 | half-life [7]: 1.6 h; AUC [8]: 870 ng·h/mL; half-life [9]: 1.6 h; IC50 [10]: 26.2 µM; AUC [11]: 3030 ng·h/mL; Vd [12]: 5.1 L/kg; clearance [13]: 38.4 mL/min/kg; half-life [14]: > 2 h; Cmax [15]: 1530 ng/mL; bioavailability [16]: 69.6%; IC50 [17]: 71.5 µM; half-life [18]: > 2 h; Tmax [19]: 0.4 h; IC50 [20]: 20.5 µM; IC50 [21]: 34.1 µM; IC50 [22]: 27.8 µM; microsomal CLint [23]: 29.8 µL/min/mg
12 | > 10 µM | 9.4 µM | > 10 µM | > 10 µM | > 10 µM | > 10 µM | Cc1cccc(-c2[nH]c(NCc3cccc(F)c3)nc2-c2ccc3c(cnn3S(C)(=O)=O)c2)n1 | IC50 [24]: > 0.3 µM
13 | – | – | – | – | – | – | Cc1cccc(-c2[nH]c(NCc3ccccc3F)nc2-c2ccc3[nH]ccc3c2)n1 | IC50 [24]: > 0.3 µM; IC50 [25]: > 10 µM
14 | > 10 µM | 8.5 µM | > 10 µM | > 10 µM | > 10 µM | > 10 µM | Cc1cccc(-c2[nH]c(NCc3cccc(F)c3)nc2-c2ccc3c(cnn3C(F)F)c2)n1 | –
